Reference: article PMC7024211, “Antifouling Napyradiomycins from Marine-Derived Actinomycetes Streptomyces aculeolatus” (Marine Drugs, 2020)
In brackets after ≈: the same amount, converted by molar mass.

Legend:
[1] = test system: M. edulis; parameters: method as in doi:10.1016/S0044-8486(97)00209-3; conditions: against M. edulis ref 62; cited from earlier work
[2] = test system: M. luteus; experiment: Bacterial growth inhibition assay (OD600nm); assay type: cell-based, Micrococcus luteus; conditions: 31.25 µg/mL
Description: (§1) Five marine bacterial species were used as models to assess antimicrofouling activity. The biofilm-forming marine bacteria Marinobacter hydrocarbonoclasticus DSM 8798 (ATCC 49840), Cobetia marina DSM 4741, Phaeobacter inhibens DSM 17,395, and Pseusooceanicola batsensis DSM 15,984 were obtained from DSMZ (Leibniz Institute DSMZ—German collection of Microorganisms and Cell Cultures) and Micrococcus luteus. Cultures were routinely grown in liquid marine broth (Carl Roth GmbH, Karlsruhe, Germany) with agitation (180 rpm) or on agar-supplemented marine broth, at 28 °C (M. hydrocarbonoclasticus and C. marina) or 30 °C (P. inhibens and P. batsensis). M. luteus was maintained in Brain Heart Infusion broth (BHI, Becton Dickinson, GmbH, Heidelberg, Germany) with agitation (180 rpm) or on agar-supplemented BHI, at 37 °C.
(§2) The antibacterial activity of the napyradiomycins (1–12) was assessed in 96-well polystyrene flat bottom microplates (Nunclon Delta Surface, Thermo Scientific, Roskilde, Denmark) following previously reported procedures. […] After 24 h (M. hydrocarbonoclasticus, C. marina) or 48 h (P. batsensis, P. inhibens, M. luteus) incubation, the OD600nm was determined (Molecular Devices, Spectra Max 190). […] The percentage of growth inhibition was calculated as the amount of growth relative to that of the bacterial species without added compounds (with the same amount of DMSO added). CuSO4 (5 μM), a potent antifouling agent used in antifouling paints, was used as reference.
(§3) All assays were performed in triplicate, and results are representative of the average and standard error of the mean (SEM). Statistical analysis was performed in GraphPad Prism 8.0.2 (San Diego, CA, USA), using one-way ANOVA followed by a Dunnett’s multiple comparisons test against the control (species grown with the same amount of DMSO added).

[3] = test system: C. marina; experiment: Bacterial growth inhibition assay (OD600nm); assay type: cell-based, Cobetia marina; conditions: 31.25 µg/mL
Description: as §1, §2, §3

[4] = test system: P. batsensis; experiment: Bacterial growth inhibition assay (OD600nm); assay type: cell-based, Pseudooceanicola batsensis; conditions: 31.25 µg/mL
Experimental: (§4) As a first screening approach, liquid cultures of M. hydrocarbonoclasticus, and C. marina in a 96-well format were analyzed for bacterial growth inhibition by percent decrease in OD600 after incubation with napyradiomycins (1–12) at 31.25 µg/mL.
as §1
(§5) The antibacterial activity of the napyradiomycins (1–12) was assessed in 96-well polystyrene flat bottom microplates (Nunclon Delta Surface, Thermo Scientific, Roskilde, Denmark) following previously reported procedures. For initial screening, bacterial overnight cultures were diluted to an optical density (OD600nm) of 0.2 and incubated statically at 28 °C (M. hydrocarbonoclasticus, C. marina), 30 °C (P. inhibens, P. batsensis) or 37 °C (M. luteus) in a 96-well microplate in the presence or absence of 31.25 µg/mL of the napyradiomycins, solubilized in DMSO. After 24 h (M. hydrocarbonoclasticus, C. marina) or 48 h (P. batsensis, P. inhibens, M. luteus) incubation, the OD600nm was determined (Molecular Devices, Spectra Max 190). […] The percentage of growth inhibition was calculated as the amount of growth relative to that of the bacterial species without added compounds (with the same amount of DMSO added). CuSO4 (5 μM), a potent antifouling agent used in antifouling paints, was used as reference.
as §3

[5] = test system: P. inhibens; experiment: Bacterial growth inhibition assay (OD600nm); assay type: cell-based, Phaeobacter inhibens; conditions: 31.25 µg/mL
Experimental: as §4
Five marine bacterial species were used as models to assess antimicrofouling activity. The biofilm-forming marine bacteria Marinobacter hydrocarbonoclasticus DSM 8798 (ATCC 49840), Cobetia marina DSM 4741, Phaeobacter inhibens DSM 17,395, and Pseusooceanicola batsensis DSM 15,984 were obtained from DSMZ (Leibniz Institute DSMZ—German collection of Microorganisms and Cell Cultures) and Micrococcus luteus. […]
as §2, with “CuSO4 (5 μM), a potent antifouling agent used in antifouling paints, was used as reference.” left out

[6] = test system: M. hydrocarbonoclasticus; experiment: Bacterial growth inhibition assay (OD600nm); assay type: cell-based, Marinobacter hydrocarbonoclasticus; conditions: 31.25 µg/mL
Experimental: as §4, §1, §5, §3

[7] = test system: M. hydrocarbonoclasticus; experiment: Biofilm inhibition assay (crystal violet); assay type: cell-based, Marinobacter hydrocarbonoclasticus; conditions: Marinobacter nauticus
Experimental: (§6) In a 96-well plate, biofilm grown cultures of M. hydrocarbonoclasticus and C. marina were incubated with napyradiomycins (1–12) at a concentration of 31.25 µg/mL. After discarding the media, biofilm inhibition was determined from OD600 measurements of crystal violet stained cells resuspended from the plate bottom with acetic acid.
as §1
(§7) The antibiofilm activity of napyradiomycins (1–12) against the five marine bacterial species was assessed in 96-well polystyrene flat bottom microplates (Nunclon Delta Surface, Thermo Scientific, Roskilde, Denmark) as previously reported. For initial screening, bacterial overnight cultures were diluted to an optical density (OD600nm) value of 0.2 and incubated statically at 28 °C (M. hydrocarbonoclasticus, C. marina), 30 °C (P. inhibens, P. batsensis) or 37 °C (M. luteus) in the 96-well microplate in the presence or absence of 31.25 µg/mL of napyradiomycins, solubilized in DMSO. After 24 h (M. hydrocarbonoclasticus, C. marina) or 48 h (P. batsensis, P. inhibens, M. luteus) incubation, the OD600nm was determined. The planktonic cells and media were discarded, and the wells were washed twice with deionized water. The biofilm was fixed for 1 h at 60 °C and stained with crystal violet 0.06% for 10 min. The dye was discarded, and the wells were again washed twice with deionized water. The stained biofilm was solubilized with 30% acetic acid and the OD600nm was determined. […] The percentage of biofilm inhibition was calculated as the amount of biofilm relative to that of the bacterial species without added compounds (with the same amount of DMSO added). CuSO4 (5 μM), a potent antifouling agent used in antifouling paints, was used as reference.
as §3, with “8.0.2,” for “8.0.2 (San Diego, CA, USA),”

[8] = test system: C. marina; experiment: Biofilm inhibition assay (crystal violet); assay type: cell-based, Cobetia marina; conditions: 31.25 µg/mL
Experimental: as §6, §1, §7
as §3, with “8.0.2,” for “8.0.2 (San Diego, CA, USA),”

[9] = test system: M. luteus; experiment: Biofilm inhibition assay (crystal violet); assay type: cell-based, Micrococcus luteus; conditions: 31.25 µg/mL
Experimental: as §6, §1, §7
as §3, with “8.0.2,” for “8.0.2 (San Diego, CA, USA),”

[10] = test system: P. batsensis; experiment: Biofilm inhibition assay (crystal violet); assay type: cell-based, Pseudooceanicola batsensis; conditions: 31.25 µg/mL
Experimental: as §6, §1, §7
as §3, with “8.0.2,” for “8.0.2 (San Diego, CA, USA),”

[11] = test system: P. inhibens; experiment: Biofilm inhibition assay (crystal violet); assay type: cell-based, Phaeobacter inhibens; conditions: 31.25 µg/mL
Experimental: as §6, §1, §7
All assays were performed in triplicate, and results are representative of the average and standard error of the mean (SEM). […]

[12] = Mussel plantigrade larvae settlement, 15 h acute exposure assay; assay type: in vivo; conditions: Mytilus galloprovincialis (mussel, plantigrade larvae), in vivo, no mortality at highest tested concentration 12 µg/mL
Experimental: (§8) Mussel (M. galloprovincialis) adhesive larvae (plantigrades) were used to assess in vivo the antifouling activity of napyradiomycins (1–12) towards macrofouling. Juvenile mussel aggregates were collected at the intertidal rocky shore during low spring tides, at Memória beach, Matosinhos, Portugal (41°13′59″ N; 8°43′28″ W). At the laboratory, immediately before the bioassays, mussel plantigrade larvae were screened and isolated from the juvenile aggregates using a binocular microscope (Olympus SZX2-ILLT, Hamburg, Germany) and washed with filtered seawater to remove organic debris. Only competent plantigrade larvae (those showing foot exploratory behavior) were selected and used in the exposure bioassays following previously validated procedures. Plantigrades were exposed in 24-well polystyrene plates for 15 h in the darkness at 18 °C. DMSO was used as solvent for crude extracts, fractions and pure compounds stock and working solutions. Working solutions were prepared by successive dilutions of stock solutions in DMSO and then diluted in filtered seawater to obtain the test solutions. DMSO concentration in test solutions was always 0.1%. Four well replicates were used per condition with five larvae per well. Two negative controls, one with ultra-pure water and the other with DMSO 0.1% were included in all bioassays, as well as a positive control with 5 μM CuSO4 (a potent antifouling agent). Anti-settlement bioactivity was determined by the presence/absence of fixed byssal threads produced by each individual larvae for all the conditions tested. […] Chi-square Pearsons goodness-of-fit test was applied to data in order to determine EC50. Significance was considered at p < 0.01 for all analyses, and 95% lower and upper confidence limits [95% LCL; UCL] were presented. Therapeutic ratio (LC50/EC50) was used to evaluate the effectiveness vs. toxicity of compounds [19, 21].

[13] = test system: M. galloprovincialis plantigrade larvae; experiment: as above; assay type: in vivo; conditions: Mytilus galloprovincialis, 15 h, 95% LCL, UCL in brackets, read-out: EC50 [Conf. limits] larval settlement
Experimental: as §8

| Molecule | EC50 [1] | % growth inhibition M. luteus [2] | % growth inhibition C. marina [3] | % growth inhibition P. batsensis [4] | % growth inhibition P. inhibens [5] | % growth inhibition M. hydrocarbonoclasticus [6] | inhibition at 0.98 µg/mL ([7]; 0.98 µg/mL, read-out: % inhibition of biofilm formation M. hydro.) | inhibition at 1.95 µg/mL ([7]; 1.95 µg/mL, read-out: % inhibition of biofilm formation M. hydro.) | inhibition at 15.6 µg/mL ([7]; 15.6 µg/mL, read-out: % inhibition of biofilm formation M. hydro.) | inhibition at 31.25 µg/mL ([7]; 31.25 µg/mL, read-out: % Biofilm Inhibition ± SEM M. hydrocarbonoclasticus) | % Biofilm Inhibition ± SEM C. marina [8] | % Biofilm Inhibition ± SEM M. luteus [9] | % Biofilm Inhibition ± SEM P. batsensis [10] | % Biofilm Inhibition ± SEM P. inhibens [11] | LC50 at 15 h [12] | EC50 [13] |
| --- | --- | --- | --- | --- | --- | --- | --- | --- | --- | --- | --- | --- | --- | --- | --- | --- |
| ivermectin | 0.4 µg/mL |  |  |  |  |  |  |  |  |  |  |  |  |  |  |  |
| CC(=CCCC(C)=CCC12OC(C)(C)C(Cl)CC1(Cl)C(=O)c1c(O)cc(O)cc1C2=O)CO (stereo not shown) [Napyradiomycin 2, 18-hydroxynapyradiomycin A1] |  | did not inhibit growth | did not inhibit growth | did not inhibit growth | did not inhibit growth | did not inhibit growth | 24.6 ± 9.8% | 56.5 ± 5.7% | 56.6 ± 0.9% | 60.2 ± 5.7% | N.I. | N.I. | N.I. | N.I. | > 12 µg/mL | 2 µg/mL (≈ 4.02 µM) |
